Publication PMC9497102, “Thiosemicarbazone Derivatives Developed to Overcome COTI-2 Resistance” (Cancers, 2022)
Read-outs that look alike come from different tables or passages of the source.

Key:
[1] = tested on: SW480/Coti cells; assay: MTT viability assay, 72 h; assay type: cell-based, human; details: for IC50: Homo sapiens, SW480, 72 h, MTT
Protocol: (§1) In vitro tests were performed with human colorectal cancer SW480 cells (purchased from the American Type Culture Collection, Manassas, VA, USA), SW480/Tria, and the SW480/Coti cells, which are previously established sublines that are resistant to Triapine and COTI-2 [16], respectively. Additionally, small-cell lung carcinoma GLC-4 and its subline GLC-4/adr, which is a doxorubicin-resistant subline overexpressing ABCC1 (purchased from Dr. […], Groningen, The Netherlands), were used. All cells were maintained in a humidified 5% CO2 incubator at 37 °C and grown in minimal essential medium or RPMI-1640, respectively, supplemented with 10% fetal bovine serum (FBS). In order to maintain the resistant phenotype of GLC-4/adr cells, they were selected with doxorubicin (1152 nM) once a month. All cell lines were tested for mycoplasma contamination. For the cytotoxicity, cell viability, and proliferation studies, the 3-(4,5-dimethylthiazol-2-yl)-2,5-diphenyltetrazolium bromide (MTT) assay was utilized. Cells were seeded in 96-well plates at a density of 2 × 10^4 cells/well, with the exception of SW480/Tria, which was used at a density of 3 × 10^4 cells/well. After 24 h of recovery, cells were treated with the indicated concentration of drugs. For the drug combination experiments, verapamil and cyclosporine A (CSA) were used as ABCC1 modulators, and tetrathiomolybdate (TTM) was used as a copper chelator. The TSCs were dissolved in DMSO followed by subsequent dilutions in the medium in order to maintain a final DMSO concentration of <1%. After 72 h, the treatment solution was removed and replaced with 100 μL of MTT solution (EZ4U, Biomedica, Vienna, Austria), which was diluted 1:10 in the growth medium. A TECAN Infinite 200 Pro plate reader was used to measure the absorbance of the solution after 2-3 h incubation at 5% CO2 in an incubator at 37 °C. The anticancer activity was determined with GraphPad Prism software and indicated as IC50 values (half maximum inhibitory concentration).

[2] = tested on: GLC-4 cells; assay: MTT viability assay, 72 h; assay type: cell-based; details: Homo sapiens, GLC4
Protocol: as §1

[3] = tested on: GLC-4/adr cells (ABCC1-overexpressing); assay: MTT viability assay, 72 h; assay type: cell-based
Protocol: as §1

[4] = tested on: SW480 and SW480/Coti cells; assay: HPLC-MS cell uptake measurements; assay type: cell-based, human; details: 10 µM, 3 h; for uptake lower in resistant SW480/Coti cells compared with parental SW480 cells: LC-MS (method not validated)
Protocol: Cells (1 × 10^6) were seeded in 25 cm^2 culture flasks and left to recover for 24 h at 37 °C and 5% CO2. The compounds were dissolved in DMSO (10 mM) and further diluted in the growth medium. The cells were treated in triplicate by replacing the growth medium with 5 mL of drug-containing medium (10 µM). After 3 h of incubation the cells were washed once with ice-cold PBS, and then collected by scraping into ice-cold PBS. The cell suspension was centrifuged for 5 min at 300× g and the supernatant was removed. Then, the cell pellets were lysed with three freeze/thaw cycles in liquid nitrogen/37 °C waterbath and re-suspended in 100 µL of water and 300 µL of cold acetonitrile (1:3 mixture). After 10 min of incubation on ice, the samples were centrifuged (15,080× g, 4 °C, and 10 min) and the supernatants were stored at −80 °C for HPLC-MS analysis. For the calibration curve, known concentrations of drugs were spiked into untreated cell extracts before adding acetonitrile. To normalize to the cell number, additional flasks were prepared (treated and untreated) and cells were collected by trypsinization and counted with counting chambers.
LC-MS analyses of the cell and media extracts were performed on a Vanquish Horizon UHPLC system (Thermo Fisher Scientific, Waltham, MA, USA) coupled to the ESI source of a timsTOF fleX mass spectrometer (Bruker Daltonics, Billerica, MA, USA). […] High-resolution ESI-MS spectra were recorded using the positive ion mode in the range of m/z 150–510 at a spectra rate of 2 Hz. […] For quantification, extracted ion chromatograms of m/z 249.1168 ± 0.0020 for COTI-NMe2 and of m/z 367.1699 ± 0.0020 for COTI-2 were calculated and the peak areas were determined using Bruker Compass Data Analysis 5.3.
In general, it must be mentioned that the LC-MS method for quantification of COTI-2 and COTI-NMe2 was not validated and that the deviation of the peak areas both within a batch and between batches was higher than expected. […]

[5] = Spectrophotometric redox reaction of copper(II) complexes with GSH or AA; assay type: physicochemical; details: 300 equiv. GSH, pH 7.4, after formation of mixed-ligand GSH adduct
Protocol: A Hewlett Packard 8452A diode array spectrophotometer and a special, tightly closed tandem cuvette (Hellma Tandem Cell, 238-QS) were used to monitor the redox reactions of the Cu(II) and Fe(III) complexes with GSH and AA. The spectra were recorded at a physiological pH (pH = 7.4, 50 mM HEPES, I = 0.1 M KCl) when the metal complexes:GSH or AA ratio was 1:300 (ccomplex = 30 μM, cGSH or AA = 9 mM). The stock solutions of the complexes and the GSH and AA solutions were freshly prepared before every measurement. In the first half of the cuvette, the ligand was mixed with the complex, and the other contained the reducing agent. Both isolated parts of the cuvette were deoxygenated with argon for 10 min. The first spectrum was recorded before mixing, and then after mixing, the reduction was usually followed until no further absorbance change was observed.

[6] = tested on: SW480 cells; assay: Cell cycle analysis by PI staining and flow cytometry; assay type: cell-based, human; details: 24 h
Protocol: The cell cycle phases were analyzed by staining the DNA of ethanol-fixed cells with PI, as previously described. SW480 and SW480/Coti cells were seeded at a density of, 2 × 10^5 cells/well in 6-well plates and treated with the indicated concentrations of COTI-2 and COTI-NMe2 for 24 h. Then, cells were collected by trypsinization and fixed in cold 70% ethanol. In order to digest RNA, the cells were treated with RNase (0.2 mg/mL, Sigma) and, subsequently, DNA was stained with PI (1 µg/mL). Fluorescence was measured by flow cytometry (FACS Calibur, Becton Dickinson, Ashland, CA, USA) and cell cycle phases were analyzed using Cell Quest Pro software.

[7] = tested on: GLC-4 cells; design: method as in PMID 33190481; details: 72 h, MTT; cited from earlier work
[8] = design: method as in PMID 33190481; details: after formation of mixed-ligand GSH adduct; cited from earlier work

Compound	IC50 [1]	Relative Resistance SW480/Coti ([1]; IC50 of resistant subline divided by IC50 of parental SW480)	IC50 [2]	IC50 [3]	uptake lower in resistant SW480/Coti cells compared with parental SW480 cells [4]	lower intracellular drug levels compared with COTI-2 ([4]; both SW480 and SW480/Coti)	redox reaction of the copper(II) complex with GSH [5]	effect on G2/M population [6]	IC50 [7]	redox reaction of the copper(II) complex with GSH [8]
CN(C)C(=S)NN=C1CCCc2cccnc21 (mixture of isomers) [COTI-NMe2, 2-(6,7-Dihydroquinolin-8(5H)-ylidene)-N^4,N^4-dimethylhydrazine-1-carbothioamide]	50 ± 30 nM	1.3 ^n.s.	30 ± 30 nM	60 ± 30 nM	no difference	10–20 fold	no measurable spectral changes were seen	significant reduction in the G2/M population		
S=C(N/N=C1\CCCc2cccnc21)N1CCN(c2ccccn2)CC1 [COTI-2, 4-(pyridine-2-yl)-N-([(8E)-5,6,7,8-tetrahydroquinolin-8-ylidene]amino)piperazine-1-carbothioamide]					~ 40%			significant reduction in the G2/M population	30 ± 10 nM	spectra were almost unchanged within 6 h
CN(C(=S)N/N=C1\CCCc2cccnc21)C1CCCCC1 [COTI-NMeCy, N-Cyclohexyl-2-(6,7-dihydroquinolin-8(5H)-ylidene)-N^4-methylhydrazine-1-carbothioamide]	3980 ± 400 nM		170 ± 100 nM	540 ± 150 nM			no measurable spectral changes were seen			
